From article PMC8510290, “Fishing of α-Glucosidase’s Ligands from Aloe vera by α-Glucosidase Functionalized Magnetic Nanoparticles” (Molecules, 2021)

Molecular target: T1, α-glucosidase (Saccharomyces cerevisiae, UniProt P53341)
T1 construct: gene MAL12
Test: p-NPG hydrolysis assay (activation, maximal effect ratio) with purified enzyme; also fished out by enzyme-immobilized magnetic nanoparticles
Assay type: biochemical

T1 sequence (P53341 whole entry): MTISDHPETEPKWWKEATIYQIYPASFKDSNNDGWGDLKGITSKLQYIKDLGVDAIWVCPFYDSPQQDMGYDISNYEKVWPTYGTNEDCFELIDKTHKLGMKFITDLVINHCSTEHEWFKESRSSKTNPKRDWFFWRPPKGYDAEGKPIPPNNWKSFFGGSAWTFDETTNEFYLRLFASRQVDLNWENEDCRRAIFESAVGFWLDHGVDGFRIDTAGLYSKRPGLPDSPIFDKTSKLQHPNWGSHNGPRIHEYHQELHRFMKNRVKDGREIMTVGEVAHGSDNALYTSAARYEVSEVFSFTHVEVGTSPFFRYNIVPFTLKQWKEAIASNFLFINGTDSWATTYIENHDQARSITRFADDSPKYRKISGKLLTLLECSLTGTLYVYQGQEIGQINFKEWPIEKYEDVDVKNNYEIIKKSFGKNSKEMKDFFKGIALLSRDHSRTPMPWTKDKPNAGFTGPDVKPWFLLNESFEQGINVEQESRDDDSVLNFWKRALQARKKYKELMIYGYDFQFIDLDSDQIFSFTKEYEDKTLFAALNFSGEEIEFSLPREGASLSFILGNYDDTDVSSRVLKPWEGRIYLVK

Emax	Structure (SMILES)
26.4 ± 0.8%	COc1cc(-c2c(C)cc(O)cc2O)oc(=O)c1 [compound 1, aloenin aglycone]
17.8 ± 0.3%	CC(=O)c1c(C[C@@H]2Cc3cc(O)cc(O)c3C(=O)O2)cc(O)cc1O[C@@H]1O[C@H](CO)[C@@H](O)[C@H](OC(=O)/C=C/c2ccc(O)cc2)[C@H]1O [compound 2, aloeacone]
